Test results from patent US6277829A, “Process for preparing of aqueous formulation for opthalmic use” (S.I.F.I. Societa Industria Farmaceutica Italiana S.p.A., priority 1999, dated 2001).

Key:
[1] = titration of azithromycin and clarithromycin, dispersed in water, with citric acid (FIG. 1, FIG. 2); format: physicochemical; settings: titration with citric acid
[2] = solubility in aqueous solution; format: physicochemical; settings: water; compared with azithromycin; read-out: maximum concentration in water
Description: Formulations containing azithromycin at concentration ranging from 0.01 to 10% w/v, more particularly between 0.3 and 5% w/v, are the most preferred.

equivalent point [1]: ~4.5 pH | solubility [2]: < 20 mg/mL
Compound: CC[C@H]1OC(=O)[C@H](C)[C@@H](O[C@H]2C[C@@](C)(OC)[C@@H](O)[C@H](C)O2)[C@H](C)[C@@H](O[C@@H]2O[C@H](C)C[C@H](N(C)C)[C@H]2O)[C@](C)(OC)C[C@@H](C)C(=O)[C@H](C)[C@@H](O)[C@]1(C)O [clarithromycin]
